Like-named read-outs stand apart in the source and are kept apart here.
What was measured:
HDAC (HeLa cell extract) = assay: Primary assay: deacetylase activity, HeLa cell extract as source of HDAC; format: biochemical, human
Text: (§1) Briefly, this assay relies on the release of radioactive acetate from a radioactively labelled histone fragment by the action of HDAC enzyme. Test compounds, which inhibit HDAC, reduce the yield of radioactive acetate. Signal (e.g., scintillation counts) measured in the presence and absence of a test compound provide an indication of that compound's ability to inhibit HDAC activity. Decreased activity indicates increased inhibition by the test compound.
(§2) The histone fragment was an N-terminal sequence from histone H4, and it was labelled with radioactively labelled acetyl groups using tritiated acetylcoenzyme A (coA) in conjunction with an enzyme which is the histone acetyltransferase domain of the transcriptional coactivator p300. […] The acetylated peptide was then separated from free acetyl coA by size exclusion chromatography on Sephadex G-15 (Sigma G-15-120), using distilled H2O as the mobile phase.
(§3) After purification of the radiolabelled histone fragment, it was incubated with a source of HDAC (e.g., an extract of HeLa cells (a rich source of HDAC), recombinantly produced HDAC1 or HDAC2) and any released acetate was extracted into an organic phase and quantitatively determined using scintillation counting. By including a test compound with the source of HDAC, that compound's ability to inhibit the HDAC was determined.
Two cell volumes of extraction buffer were used, and particulate material was centrifuged out (20800 g, 4° C., 10 min). The supernatant extract having deacetylase activity was aliquotted and frozen for storage.
(§4) A source of HDAC (e.g., 2 μL of crude HeLa extract, 5 μL of HDAC1 or HDAC2; in elution buffer, as above) was incubated with 3 μL of radioactively labelled peptide along with appropriate dilutions of candidate compounds (1.5 μL) in a total volume of 150 μL of buffer (20 mM Tris pH 7.4, 10% glycerol). The reaction was carried out at 37° C. for one hour, after which the reaction was stopped by adding 20 μL of 1 M HCl/0.4 M sodium acetate. […] Radioactivity was measured using a Tri-Carb 21 00TR Liquid Scintillation Analyzer (Packard).
(§5) Percent activity (% activity) for each test compound was calculated as: % activity={(S^C−B)/(S°−B)}×100 wherein S^C denotes signal measured in the presence of enzyme and the compound being tested, S° denotes signal measured in the presence of enzyme but in the absence of the compound being tested, and B denotes the background signal measured in the absence of both enzyme and compound being tested.

HeLa cells = assay: Secondary assay: cell proliferation WST-1, HeLa; format: cell-based; settings: Homo sapiens, read-out: Cell Proliferation Inhibition WST-1 (IC50 unless otherwise specified) HeLa
[1] = system: K11 HPV E7 transformed human keratinocyte line; assay: Secondary assay: cell proliferation WST-1, K11; format: cell-based; settings: Table 2, 48 h, read-out: Cell Proliferation Inhibition WST-1 (IC50 unless otherwise specified) K11
[2] = system: NHEK-Ad primary human adult keratinocyte line; assay: Secondary assay: cell proliferation WST-1, NHEK-Ad; format: cell-based; settings: 48 h, read-out: Cell Proliferation Inhibition WST-1 (IC50 unless otherwise specified) NHEK-AD
JURKAT human T-cell line = assay: Secondary assay: cell proliferation WST-1, Jurkat; format: cell-based; settings: Table 2, 48 h, read-out: Cell Proliferation Inhibition WST-1 (IC50 unless otherwise specified) Jurkat
human HDAC2 = target: T1, human HDAC2 (Homo sapiens, UniProt Q92769); assay: Primary assay: deacetylase activity, recombinantly produced HDAC2; format: biochemical; settings: Table 1; recombinant HDAC2; read-out: HDAC Inhibition (IC50 unless otherwise specified) HDAC2
T1 construct: Full length human HDAC2 was subcloned; Flag (carried over from the HDAC2-pFlag-CTC construct; inferred by analogy to HDAC1) (C); implied by Ni-NTA purification) (N); made in house; host or cells: SF9 insect cells (baculovirus)
T1 sequence (Q92769 whole entry): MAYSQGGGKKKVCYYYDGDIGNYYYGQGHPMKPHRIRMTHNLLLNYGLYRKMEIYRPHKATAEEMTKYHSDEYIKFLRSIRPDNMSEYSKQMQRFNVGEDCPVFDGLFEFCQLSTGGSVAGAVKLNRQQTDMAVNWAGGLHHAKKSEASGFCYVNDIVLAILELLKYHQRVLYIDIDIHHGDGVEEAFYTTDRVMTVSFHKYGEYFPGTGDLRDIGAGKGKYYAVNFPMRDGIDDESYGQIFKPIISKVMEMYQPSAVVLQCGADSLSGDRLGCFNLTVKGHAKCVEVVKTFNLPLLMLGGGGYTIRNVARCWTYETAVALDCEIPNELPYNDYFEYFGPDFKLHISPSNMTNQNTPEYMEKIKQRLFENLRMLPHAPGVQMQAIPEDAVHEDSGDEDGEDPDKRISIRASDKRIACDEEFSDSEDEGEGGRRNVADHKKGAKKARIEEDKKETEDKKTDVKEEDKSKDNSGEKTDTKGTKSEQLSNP

human HDAC1 = target: T2, human HDAC1 (Homo sapiens, UniProt Q13547); assay: Primary assay: deacetylase activity, recombinantly produced HDAC1; format: biochemical; settings: Table 1; recombinant HDAC1; read-out: HDAC Inhibition (IC50 unless otherwise specified) HDAC1
T2 construct: Full length human HDAC1 was cloned by PCR; Flag (C); implied by Ni-NTA purification) (N); made in house; host or cells: SF9 insect cells (baculovirus)
T2 sequence (Q13547 whole entry): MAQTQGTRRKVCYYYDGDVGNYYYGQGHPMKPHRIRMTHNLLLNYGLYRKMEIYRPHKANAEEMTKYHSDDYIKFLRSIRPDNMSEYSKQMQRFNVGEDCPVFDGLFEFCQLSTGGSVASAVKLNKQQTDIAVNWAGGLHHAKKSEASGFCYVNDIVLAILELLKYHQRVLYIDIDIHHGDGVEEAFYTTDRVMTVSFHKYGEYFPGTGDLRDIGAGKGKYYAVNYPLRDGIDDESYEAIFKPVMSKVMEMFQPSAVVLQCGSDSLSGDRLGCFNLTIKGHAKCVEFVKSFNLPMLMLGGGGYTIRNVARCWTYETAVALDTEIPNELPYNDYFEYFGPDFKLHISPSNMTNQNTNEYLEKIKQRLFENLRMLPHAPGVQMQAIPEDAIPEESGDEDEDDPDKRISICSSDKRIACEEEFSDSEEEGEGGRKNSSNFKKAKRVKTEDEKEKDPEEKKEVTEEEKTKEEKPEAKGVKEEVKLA
Text: as §1, §2, §3
Full length human HDAC1 was cloned by PCR using a λgt11 Jurkat cDNA library (Clontech-HL5012b). […] A second PCR was carried out in order to amplify a fragment containing the HDAC1 sequence fused to the Flag tag.
Amplification of recombinant viruses was performed according to the Pharmingen Instruction Manual.
For protein production, 2×10^7 cells were infected with the appropriate recombinant virus for 3 days. Cells were then harvested and spun at 3,000 rpm for 5 minutes. They were then washed twice in PBS and resuspended in 2 pellet volumes of lysis buffer (25 mM HEPES pH 7.9, 0.1 mM EDTA, 400 mM KCl, 10% glycerol, 0.1% NP-40, 1 mM AEBSF). […]
as §4, with “glycerol).” for “glycerol). The reaction was carried out at 37° C. for one hour, after which the reaction was stopped by adding 20 μL of 1 M HCl/0.4 M sodium acetate.”
as §5

[3] = Table 1, read-out: HDAC Inhibition (IC50 unless otherwise specified) HeLa
[4] = comparative tables, HDAC inhibition, read-out: HeLa IC50
[5] = Homo sapiens, Keratinocyte, Table 2, NHEK-AD

Structure (SMILES)	IC50 (HDAC (HeLa cell extract); [3])	IC50 (HDAC (HeLa cell extract); [4])	IC50 (HeLa cells; 48 h)	IC50 ([1]; Homo sapiens, Keratinocyte)	IC50 ([2]; Homo sapiens, Keratinocyte)	IC50 (JURKAT human T-cell line; Homo sapiens)	IC50 (HeLa cells; Table 2, 48 h)	IC50 [2, 5]	melting point	IC50 (human HDAC2)	IC50 [1]	IC50 ([2]; Table 2, NHEK-AD)	IC50 (JURKAT human T-cell line)	IC50 (human HDAC1)
O=C(/C=C/C#Cc1cccc(NS(=O)(=O)c2ccccc2)c1)NO [Oxamflatin, (2E)-5-[3-[(phenylsulfonyl)amino]phenyl]-pent-2-en-4-ynohydroxamic acid, reference compound]	0.038 µM	0.038 µM	1.1 µM	4.56 µM	3.53 µM	0.26 µM	–	–	–	–	–	–	–	–
O=C(/C=C/c1cccc(S(=O)(=O)Nc2ccc3ccccc3c2)c1)NO [PX117445, N-Hydroxy-3-[3-(naphthalen-2-ylsulfamoyl)-phenyl]-acrylamide]	0.002 µM	–	–	1.2 µM	–	0.13 µM	1.1 µM	0.75 µM	164 °C	–	–	–	–	–
O=C(/C=C/c1cccc(NS(=O)(=O)c2ccccc2)c1)NO [PX089344, 3-(3-Benzenesulfonylamino-phenyl)N-hydroxy-acrylamide]	0.089 µM	0.089 µM	–	–	–	–	8.9 µM	–	172 °C	0.172 µM	–	–	–	–
CN(c1ccccc1)S(=O)(=O)c1cccc(/C=C/C(=O)NO)c1 [PX105685]	–	–	7.3 µM	–	–	–	–	–	–	0.6 µM	–	–	–	–
CC(/C=C/C(=O)NO)=C\[C@@H](C)C(=O)c1ccc(N(C)C)cc1 [TSA, trichostatin A, reference compound]	–	–	–	0.38 µM	–	0.042 µM	0.35 µM	0.2 µM	–	–	–	–	–	–
Nc1ccccc1NC(=O)c1ccc(CNC(=O)OCc2cccnc2)cc1 [MS-275, reference compound]	–	–	–	–	–	–	–	–	–	–	9.16 µM	3.1 µM	0.365 µM	–
O=C(/C=C/c1cccc(S(=O)(=O)NCCc2ccccc2)c1)NO [PX106512]	0.022 µM	0.022 µM	–	2.4 µM	–	0.21 µM	1.9 µM	–	114 °C	–	–	–	–	0.458 µM
O=C(/C=C/c1cccc(S(=O)(=O)Nc2cccc3ccccc23)c1)NO [PX117228, N-Hydroxy-3-[3-(naphthalen-1-ylsulfamoyl)-phenyl]-acrylamide]	0.007 µM	0.007 µM	0.8 µM	1.4 µM	1.2 µM	0.15 µM	–	–	180 °C	–	–	–	–	–
O=C(/C=C/c1cccc(S(=O)(=O)Nc2ccccc2)c1)NO [PX105684, N-Hydroxy-3-(3-phenylsulfamoylphenyl)acrylamide]	–	–	–	2.4 µM	–	0.2 µM	2.2 µM	1.5 µM	–	–	–	–	–	–
Cc1ccc(S(=O)(=O)Nc2cccc(/C=C/C(=O)NO)c2)cc1 [PX089342, N-Hydroxy-3-[3(toluene-4-sulfonylamino)-phenyl]-acrylamide]	0.125 µM	0.125 µM	–	–	–	–	4.1 µM	–	147 °C	–	–	–	–	0.05 µM
COc1ccc(NS(=O)(=O)c2cccc(/C=C/C(=O)NO)c2)cc1 [PX105844]	0.015 µM	–	–	–	–	–	0.4 µM	–	186 °C	–	–	–	–	0.029 µM
Cc1ccc(NS(=O)(=O)c2cccc(/C=C/C(=O)NO)c2)cc1 [PX106508]	0.031 µM	0.031 µM	–	3.5 µM	–	0.3 µM	1.6 µM	–	200 °C	–	–	–	–	0.09 µM
